# In the supplement of paper PMC4858399:
# Counter-ions that a name gives are not always drawn.
# What was measured:
# Details in all cases: exposure time 48 h
# [1] = tested on: Caenorhabditis elegans N2; test: AC50 for larval growth inhibition (Hill fit); higher = less potent
# Summary of the method: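 AC50 values come from a constrained Hill fit by weighted genetic-algorithm regression and are censored when out of range. The fit used only wells with at least 10 worms. Each well of a 96-well plate held 50 synchronised C. elegans N2 L1 larvae in K-medium with killed OP50, 1% DMSO and 0.5–200 µM chemical for 48 h at 20°C. A COPAS Biosort recorded each worm's size as extinction, which was log-transformed and averaged per well.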
# [2] = tested on: Caenorhabditis elegans N2; test: mean nematode size ln(EXT) after 48 h, plate-adjusted (DMSO control set to 6) (ln(EXT), control-adjusted); higher = larger nematodes / less growth inhibition
# Summary of the method: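 Synchronised C. elegans N2 L1 larvae were grown for 48 h at 20°C in K-medium containing killed OP50, 1% DMSO and 0.5–200 µM chemical, at 50 per well and 4–6 wells per treatment. The Biosort recorded extinction for each worm, and a growth model removed debris. Worm size was obtained by natural-logging these values and averaging them per well. For plate adjustment, the vehicle control mean was subtracted and 6 was added.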
# [3] = tested on: Caenorhabditis elegans N2; test: lowest effective concentration for larval growth inhibition (size below effect threshold); higher = less potent
# Summary of the method: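 Log-transformed well means of per-worm extinction, read as size on a Biosort, came from 50 C. elegans N2 L1 larvae per 96-well grown 48 h at 20°C in K-medium with killed bacteria, 1% DMSO and 0.5 to 200 µM chemical. The lowest effective concentration is the first dose at which the plate-adjusted mean size is below the threshold and stays below it at every higher dose. The threshold is 5.665.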
Structure (SMILES),AC50 for larval growth inhibition [1],mean nematode size ln(EXT) (ln) ([2]; 0.5 µM),mean nematode size ln(EXT) (ln) ([2]; 1 µM),mean nematode size ln(EXT) (ln) ([2]; 5 µM),mean nematode size ln(EXT) (ln) ([2]; 10 µM),mean nematode size ln(EXT) (ln) ([2]; 50 µM),mean nematode size ln(EXT) (ln) ([2]; 100 µM),mean nematode size ln(EXT) (ln) ([2]; 200 µM),lowest effective concentration [3]
c1cc2c3c(cccc3c1)CC2 [Acenaphthene],> 200 µM,6.14,5.74,6.03,6.08,5.6,5.77,5.37,200 µM
COC(=O)CCCCC(=O)OC [Dimethyl adipate],> 200 µM,5.82,5.88,5.81,5.79,5.85,5.85,5.65,200 µM
CCCOC(=O)c1cc(O)c(O)c(O)c1 [Propyl gallate],126 µM,5.91,5.94,6.05,5.78,5.95,5.81,5.54,200 µM
CCCCCCCCCCCO [1-Undecanol],18.4 µM,5.77,6.01,5.84,5.7,3.79,3.74,4.93,50 µM
CCOC(=O)NCCOc1ccc(Oc2ccccc2)cc1 [Fenoxycarb],37.2 µM,5.96,5.87,5.9,5.59,4.47,4.1,3.72,10 µM
CC/C(=C(/CC)c1ccc(O)cc1)c1ccc(O)cc1 [Diethylstilbestrol (DES)],87 µM,6,6,5.97,5.96,5.99,5.73,5.61,200 µM
Cc1[nH]c(=O)n(C(C)(C)C)c(=O)c1Cl [Terbacil],> 200 µM,5.34,5.77,5.2,5.76,5.1,5.87,5.23,200 µM
O=C(O)CC(O)C(=O)O (centres undefined) [2-Hydroxybutanedioic acid],> 200 µM,5.83,5.82,5.8,5.81,5.83,5.61,5.58,100 µM
Cn1sc(Cl)cc1=O [5-Chloro-2-methyl-3(2H)-isothiazolone],> 200 µM,5.96,5.93,5.95,6,5.9,5.82,5.55,200 µM
CN=C=S [Methyl isothiocyanate],> 200 µM,6.14,6.37,6.06,6.02,5.96,6.02,5.06,200 µM
COC(=O)c1ccc(C(=O)OC)cc1 [Dimethyl terephthalate],> 200 µM,5.9,5.9,5.87,5.83,5.81,5.83,5.09,200 µM
COP(=S)(OC)Oc1nc(Cl)c(Cl)cc1Cl [Chlorpyrifos-methyl],96.8 µM,6.24,6.29,6.3,6.17,5.93,4.68,3.59,100 µM
CN1CCN(c2ccccc2/C=C2\SCCN(c3ccc(Cl)c(Cl)c3)C2=O)CC1 [Elzasonan],62.7 µM,5.89,5.8,5.84,5.58,4.76,4.27,3.67,10 µM
CCCSP(=O)(OCC)SCCC [Ethoprop],76.3 µM,5.83,5.78,5.68,5.55,4.81,4.35,4.19,10 µM
COP(=S)(OC)Oc1ccc(SC)c(C)c1 [Fenthion],34.4 µM,5.69,5.64,5.43,5.36,5.09,5.11,4.92,1 µM
CCCOC/C(=N\c1ccc(Cl)cc1C(F)(F)F)n1ccnc1 [Triflumizole],21.3 µM,5.97,6.09,4.54,6.04,5.95,4.88,3.47,100 µM
CN(C)c1ccc(C(=O)c2ccc(N(C)C)cc2)cc1 [Michler's ketone],> 200 µM,5.78,5.87,5.83,5.78,5.82,5.88,5.58,200 µM
O=[N+]([O-])/N=C1\NCCN1Cc1ccc(Cl)nc1 [Imidacloprid],111 µM,5.78,6.02,6.07,6.08,5.96,5.54,4.86,100 µM
CCCCCCCCOc1ccc(C(=O)c2ccccc2)c(O)c1 [2-Hydroxy-4-(octyloxy)benzophenone],19.2 µM,5.91,5.98,5.92,5.95,5.61,5.56,5.64,50 µM
OC(c1ccc(Cl)cc1)(c1cncnc1)c1ccccc1Cl (centres undefined) [Fenarimol],59.8 µM,6.14,6.17,6.07,5.92,5.21,3.58,3.32,50 µM
COP(=S)(OC)Oc1ccc([N+](=O)[O-])c(C)c1 [Fenitrothion],37 µM,5.97,5.72,5.6,5.46,4.49,3.96,4.09,5 µM
CCC(C)(C)C(=O)OC1=C(c2ccc(Cl)cc2Cl)C(=O)OC12CCCCC2 [Spirodiclofen],24 µM,5.74,5.86,5.7,5.73,4.53,4.72,4.25,50 µM
CC[C@H](C)C(=O)O[C@H]1C[C@@H](C)C=C2C=C[C@H](C)[C@H](CC[C@@H]3C[C@@H](O)CC(=O)O3)[C@H]21 [Lovastatin],> 200 µM,5.85,5.83,5.8,5.83,5.65,5.23,5.06,50 µM

Structure (SMILES),AC50 for larval growth inhibition [1],mean nematode size ln(EXT) (ln) ([2]; 0.5 µM),mean nematode size ln(EXT) (ln) ([2]; 1 µM),mean nematode size ln(EXT) (ln) ([2]; 5 µM),mean nematode size ln(EXT) (ln) ([2]; 10 µM),mean nematode size ln(EXT) (ln) ([2]; 50 µM),mean nematode size ln(EXT) (ln) ([2]; 100 µM),mean nematode size ln(EXT) (ln) ([2]; 200 µM),lowest effective concentration [3]
COC(=O)Nc1nc2ccccc2[nH]1 [methyl 1H-benzimidazol-2-ylcarbamate],6.43 µM,5.81,5.7,5.32,5.32,5.06,4.58,4.89,5 µM
CCCCCCCCCC(=O)O [Decanoic acid],> 200 µM,5.89,5.86,5.85,5.87,5.85,5.68,5.66,200 µM
CC(C)N(C(=O)COc1nnc(C(F)(F)F)s1)c1ccc(F)cc1 [Flufenacet],21.5 µM,5.91,5.94,6.03,6.05,5.45,6.04,5.52,200 µM
CCN(Cc1cccnc1)C(=O)c1cccc(Cl)c1[C@]1(C)C(=O)N(Cc2ccc(OC)cc2OC)c2ccc(Cl)cc21,3.78 µM,5.85,5.78,5.8,5.4,5.54,5.37,5.39,10 µM
CCOP(=S)(OCC)SCSP(=S)(OCC)OCC [Ethion],99.2 µM,5.78,5.62,5.28,5.04,4.93,4.85,4.06,1 µM
"Cc1ccc(N)cc1N [2,4-Diaminotoluene]",> 200 µM,5.86,5.94,5.9,5.74,5.89,5.72,5.5,200 µM
COc1cc(OC)nc(NC(=O)NS(=O)(=O)c2ncccc2OCC(F)(F)F)n1 [Trifloxysulfuron-sodium],196 µM,5.81,5.77,6.02,5.88,5.9,5.97,5.51,200 µM
CCSC(=O)N(CC)C1CCCCC1 [Cycloate],105 µM,6.06,6.1,5.93,6.05,6.03,5.76,5.06,200 µM
Cn1c(=O)c2nc[nH]c2n(C)c1=O [Theophylline],> 200 µM,5.97,5.97,5.98,6.02,5.84,5.9,5.59,200 µM
"O=[N+]([O-])c1ccc(O)c([N+](=O)[O-])c1 [2,4-Dinitrophenol]",> 200 µM,5.82,5.79,5.78,5.83,5.83,5.75,5.52,200 µM
"CC1(C)C(=O)N(Br)C(=O)N1Br [1,3-Dibromo-5,5-dimethylhydantoin]",> 200 µM,5.7,5.78,5.81,5.86,5.87,5.87,5.61,200 µM
CCCCNC(=O)OCC#CI [3-Iodo-2-propynylbutylcarbamate],101 µM,6.05,5.98,6.06,6.03,5.84,4.8,3.17,100 µM
Oc1ccc(Cl)cc1Cc1ccccc1 [Clorophene],92 µM,5.89,5.87,5.83,5.73,5.15,4.62,3.79,50 µM
c1ccc2ccccc2c1 [Naphthalene],> 200 µM,5.99,5.93,5.96,5.78,5.87,5.92,4.83,200 µM
CC(C)(C)c1cc(/C=C2\SC(=N)NC2=O)cc(C(C)(C)C)c1O [Darbufelone mesylate],31.2 µM,5.59,5.62,5.03,5.48,4.17,4.18,3.87,≤ 0.5 µM
CCc1c(C(=O)NN2CCCCC2)nn(-c2ccc(Cl)cc2Cl)c1-c1ccc(Br)cc1 [Surinabant],> 200 µM,5.77,5.74,5.6,5.44,5.2,5.06,4.77,5 µM
O=C(O)c1cccc(C[C@@H]2COc3ccc(OCc4nc5cc(F)ccc5s4)cc3[C@@H]2O)c1,> 200 µM,5.95,5.88,5.79,5.88,5.87,5.92,5.09,200 µM
c1cc2ccc3cccc4ccc(c1)c2c34 [Pyrene],4.29 µM,5.71,5.58,4.64,4.52,4.28,4.05,3.59,1 µM
CCN(CC)CCNc1ccc(CNC=O)c2sc3ccc(OC)cc3c(=O)c12,107 µM,5.89,5.87,5.75,5.65,5.25,4.73,3.81,10 µM
CN1C(=O)CC[C@H]1c1cccnc1 [(-)-Cotinine],> 200 µM,5.86,5.93,5.88,5.82,5.9,5.87,5.65,200 µM
CN(C[C@@H](CC[N+]12CCC(C3CCCCC3)(CC1)CC2)c1ccc(Cl)c(Cl)c1)C(=O)c1cc(C(F)(F)F)cc(C(F)(F)F)c1,22.8 µM,5.87,6.12,5.97,5.76,3.96,3.97,3.56,50 µM
CCOC(=O)COc1cc(-n2ncc(C(F)(F)F)c(C)c2=O)c(F)cc1Cl [Flufenpyr-ethyl],> 200 µM,5.85,5.76,5.8,5.87,5.88,5.91,5.57,200 µM
COP(=O)(OC)OC=C(Cl)Cl [Dichlorvos],80.4 µM,6.07,6.12,5.84,5.87,5.05,4.4,3.3,50 µM
